Data on ten molecules can be found in ChEMBL document CHEMBL6071129, “Strategies that regulate Hippo signaling pathway for novel anticancer therapeutics” (Eur J Med Chem, 2024).

Experiment [1] can be described thus: Antiproliferative activity against human OACP cells incubated for 72 hrs by MTS assay. Type of experiment: functional, cell-based. For orientation: Tetrazolium dyes change colour on reduction, which living cells bring about.
Experiment [2] in a line: Antiproliferative activity against human SKGT4 cells incubated for 72 hrs by MTS assay. It is filed as functional, cell-based. The following applies: SKGT4, 72 h.
Experiment [3] in a line: Antiproliferative activity against human JHESO cells incubated for 72 hrs by MTS assay. It is filed as functional, cell-based.
Experiment [4] can be described thus: Antiproliferative activity against human FLO-1 cells incubated for 72 hrs by MTS assay. Type of experiment: functional, cell-based. The settings on record: FLO-1, 72 h.
For a further experiment, the system named is NCI-H441. As to the kind of experiment: Antiproliferative activity against human NCI-H441 cells incubated for 48 hrs by SRB method. Type of experiment: functional, cell-based. The settings on record: NCI-H441, 48 h. In general terms: Sulforhodamine B stains cellular protein and so reports cell mass.
A further experiment has as its system A549. Description: Antiproliferative activity against human A549 cells incubated for 48 hrs by SRB method. It is filed as functional, cell-based. The settings on record: A549, 48 h.
In another experiment the test system is NCI-H1975. Description: Antiproliferative activity against human NCI-H1975 cells incubated for 48 hrs by SRB method. Type of experiment: functional, cell-based. The following applies: NCI-H1975, 48 h.
A further experiment relates to HT-29. As to the kind of experiment: Antiproliferative activity against human HT-29 cells incubated for 48 hrs by MTT assay. It is filed as functional, cell-based. The following applies: HT-29, 48 h.
The nature of experiment [5]: Antiproliferative activity against human A2780/CP70 cells incubated for 48 hrs by MTT assay. Type of experiment: functional, cell-based. The following applies: A2780/CP70, 48 h.
Experiment [6] in a line: Antiproliferative activity against human HCA46 cells incubated for 48 hrs by MTT assay. It is filed as functional, cell-based. The following applies: HCA46, 48 h.
In the next experiment the test system is A2780. As to the kind of experiment: Antiproliferative activity against human A2780 cells incubated for 48 hrs by MTT assay. It is filed as functional, cell-based. The settings on record: A2780, 48 h.
A further experiment has as its system HCT-116. Description: Antiproliferative activity against human HCT-116 cells incubated for 48 hrs by MTT assay. It is filed as functional, cell-based. The settings on record: HCT-116, 48 h.
The subject of a further experiment is MDA-MB-231. Description: Antiproliferative activity against human MDA-MB-231 cells incubated for 96 hrs by MTT assay. It is filed as functional, cell-based. The settings on record: MDA-MB-231, 96 h.
A short description of experiment [7]: Antiproliferative activity against CMT47 cells incubated for 48 hrs. The settings on record: Canis lupus familiaris, read-out: ED50 (the source's name). Type of experiment: functional.
Experiment [8] in a line: Antiproliferative activity against human HBC4 cells incubated for 96 hrs by MTT assay. It is filed as functional, cell-based. The following applies: HBC4, 96 h.
Experiment [9] in a line: Antiproliferative activity against CMT9 cells incubated for 48 hrs. Type of experiment: functional. The settings on record: Canis lupus familiaris, read-out: ED50 (the source's name).
The nature of experiment [10]: Antiproliferative activity against human HBC5 cells incubated for 96 hrs by MTT assay. It is filed as functional, cell-based. The following applies: HBC5, 96 h.
The nature of experiment [11]: Inhibition of TEAD (unknown origin) to YAP (unknown origin) protein-protein interaction expressed in HEK293T cells transfected with 8XGTIIC-Luciferase and CMV-betagalactosidase incubated for 24 hrs by luciferase reporter assay. Type of experiment: cell-based, Homo sapiens. (In general: In a reporter assay the amount or activity of a reporter protein is the signal.)

For the next experiment, the system named is NCI-H2052. Description: Antiproliferative activity against human NCI-H2052 cells. Type of experiment: functional, cell-based.
Experiment [12] in a line: Inhibition of TEAD (unknown origin) by YAP reporter assay. More on the design: species or system Homo sapiens.
Experiment [13] can be described thus: Inhibition of His-tagged TEAD1 (unknown origin) to YAP (unknown origin) protein-protein interaction preincubated for 30 mins followed by biotinylated YAP addition and measured after 60 mins by TR-FRET assay. Set-up: species or system Homo sapiens.
The nature of experiment [14]: Inhibition of His-tagged TEAD1 (unknown origin) to TAZ (unknown origin) protein-protein interaction preincubated for 30 mins followed by biotinylated YAP addition and measured after 60 mins by TR-FRET assay. Set-up: species or system Homo sapiens.
Experiment [15] is described as follows: Inhibition of His-tagged TEAD4 (unknown origin) to YAP (unknown origin) protein-protein interaction preincubated for 30 mins followed by biotinylated YAP addition and measured after 60 mins by TR-FRET assay. Set-up: species or system Homo sapiens.
Experiment [16] in a line: Inhibition of His-tagged TEAD2 (unknown origin) to TAZ (unknown origin) protein-protein interaction preincubated for 30 mins followed by biotinylated YAP addition and measured after 60 mins by TR-FRET assay. Set-up: species or system Homo sapiens.
Experiment [17] can be described thus: Inhibition of His-tagged TEAD3 (unknown origin) to YAP (unknown origin) protein-protein interaction preincubated for 30 mins followed by biotinylated YAP addition and measured after 60 mins by TR-FRET assay. More on the design: species or system Homo sapiens.
Experiment [18] can be described thus: Inhibition of His-tagged TEAD2 (unknown origin) to YAP (unknown origin) protein-protein interaction preincubated for 30 mins followed by biotinylated YAP addition and measured after 60 mins by TR-FRET assay. More on the design: species or system Homo sapiens.
In experiment [19] the test system is Transcriptional enhancer factor TEF-5-Lipid. As to the kind of experiment: Inhibition of His-tagged TEAD3 (unknown origin) to lipid (unknown origin) interaction preincubated for 30 mins followed by biotinylated lipid addition and measured after 60 mins by TR-FRET assay. More on the design: species or system Homo sapiens.
Experiment [20] concerns Transcriptional enhancer factor TEF-1-Lipid. As to the kind of experiment: Inhibition of His-tagged TEAD1 (unknown origin) to lipid (unknown origin) interaction preincubated for 30 mins followed by biotinylated lipid addition and measured after 60 mins by TR-FRET assay. More on the design: species or system Homo sapiens.
A short description of experiment [21]: Inhibition of His-tagged TEAD3 (unknown origin) to TAZ (unknown origin) protein-protein interaction preincubated for 30 mins followed by biotinylated YAP addition and measured after 60 mins by TR-FRET assay. Set-up: species or system Homo sapiens.
Experiment [22] has as its system Transcriptional enhancer factor TEF-3-Lipid. As to the kind of experiment: Inhibition of His-tagged TEAD4 (unknown origin) to lipid (unknown origin) interaction preincubated for 30 mins followed by biotinylated lipid addition and measured after 60 mins by TR-FRET assay. More on the design: species or system Homo sapiens.
Experiment [23] can be described thus: Inhibition of His-tagged TEAD4 (unknown origin) to TAZ (unknown origin) protein-protein interaction preincubated for 30 mins followed by biotinylated YAP addition and measured after 60 mins by TR-FRET assay. Set-up: species or system Homo sapiens.
In experiment [24] the test system is Transcriptional enhancer factor TEF-4-Lipid. As to the kind of experiment: Inhibition of His-tagged TEAD2 (unknown origin) to lipid (unknown origin) interaction preincubated for 30 mins followed by biotinylated lipid addition and measured after 60 mins by TR-FRET assay. More on the design: species or system Homo sapiens.

Regarding `O=S(=O)(c1ccc2c(c1)C(=NO)c1cc(S(=O)(=O)N3CCCCC3)ccc1-2)N1CCCCC1`, the IC50 in experiment [1], in [2], in experiment [3] and in [4] was below 1000 nM throughout.

As for `Cc1cc2c(C(C)C)c(O)c(O)c(C=O)c2c(O)c1-c1c(C)cc2c(C(C)C)c(O)c(O)c(C=O)c2c1O`, the results for the IC50 in the experiment with NCI-H441, in the experiment with A549 and in the experiment on NCI-H1975 were 19900 nM, 10000 nM and 6770 nM, respectively.

`O=C1C=C(Nc2ccc(O)cc2)C(=O)c2ccccc21`: the IC50 (as a rule, the point on the concentration scale where inhibition reaches its midpoint) is 2680 nM in the experiment with HT-29; 5350 nM in experiment [5]; 19800 nM in [6]; 3800 nM in the experiment with A2780; 4170 nM in the experiment on HCT-116.

`CC(C)n1c(/C=C/[C@H](O)C[C@H](O)CC(=O)O)c(-c2ccc(F)cc2)c2ccccc21`: the IC50 (in the experiment with MDA-MB-231; in experiment [8]; in experiment [10]) was below 10000 nM each time. Further, the EC50 in [7] turned out to be 950 nM; in experiment [9], 9950 nM.

As for `COc1ccc2c(c1)/C(=N/NC(=O)c1nnn(-c3ccccc3N)c1-c1ccc(Cl)c(Cl)c1)C(=O)N2`, the IC50 in [11] stood at 1700 nM.

As for `Nc1nonc1-n1nnc(C(=O)N/N=C2\C(=O)Nc3ccccc32)c1-c1ccc(Cl)c(Cl)c1`, the 50% inhibitory concentration (IC50) in experiment [11] stood at 6500 nM.

Regarding `COC(=O)c1cc(S(N)(=O)=O)ccc1NC1CCCCC1`, the IC50 with NCI-H2052 was above 3000 nM; in experiment [12] it was 458 nM.

Consider `CC(NC(=O)c1cc2nc(N(C)C)n(-c3ccc(Br)cc3)c2s1)c1ccccn1` (configuration not stated), for which the IC50 came to 2030 nM with NCI-H2052 and 391 nM in experiment [12].

As for `N#C[C@@H]1CCN(C(=O)c2cnn3c(=O)cc(-c4ccc(C5CCCCC5)cc4)[nH]c23)C1`, the IC50 in experiment [13] was found to be 30 nM; in experiment [14], 50 nM; in [15], 210 nM; in [16], 10 nM; in [17], 50 nM; in [18], 10 nM. Also, the IC50 in [19] is 40 nM; in experiment [20] it was 30 nM; in experiment [21], 40 nM; in experiment [22] it was 50 nM; in experiment [23], 80 nM; in experiment [24], 20 nM.

With `CCOC(=O)c1cnn2c(=O)cc(-c3ccc(C(F)(F)F)cc3)[nH]c12`, the IC50 is above 5000 nM in experiment [13]; 1300 nM in [14]; above 50000 nM in experiment [15]; 2000 nM in experiment [16]; 1400 nM in experiment [17]; 3000 nM in [18]. Also, the IC50 in experiment [19] was 700 nM; in [20] it was 1100 nM; in experiment [21] it was 1300 nM; in [22], above 50000 nM; in [23], 20000 nM; in experiment [24] it was 1600 nM.
